Test results from the NIST ThermoML archive (doi:10.1016/j.jct.2017.05.001).
Numbers after ± are expanded uncertainties.

Assay: wn = mass fraction of the nth substance listed
Settings: Liquid; for mass density: Vibrating tube method

## CN(C)CCO [2-(N,N-dimethylamino)ethanol] + O
293.15 K, 80000 kPa, Falling or rolling sphere viscometry, w1 = 0.202
  viscosity: 2.672 ± 0.088 mPa·s
293.15 K, 80000 kPa, Falling or rolling sphere viscometry, w1 = 0.3005
  viscosity: 4.73 ± 0.16 mPa·s
293.15 K, 80000 kPa, w1 = 0.1005
  mass density: 1025.3 ± 0.7 kg/m3
293.15 K, 80000 kPa, w1 = 0.202
  mass density: 1021.1 ± 0.7 kg/m3
293.15 K, 80000 kPa, w1 = 0.3005
  mass density: 1018 ± 0.7 kg/m3
293.15 K, 80000 kPa, w1 = 0.3995
  mass density: 1014.1 ± 0.7 kg/m3
293.15 K, 90000 kPa, w1 = 0.1005
  mass density: 1029 ± 0.7 kg/m3
293.15 K, 90000 kPa, w1 = 0.202
  mass density: 1024.4 ± 0.7 kg/m3
293.15 K, 90000 kPa, w1 = 0.3005
  mass density: 1021.2 ± 0.7 kg/m3
293.15 K, 90000 kPa, w1 = 0.3995
  mass density: 1017.3 ± 0.7 kg/m3
293.15 K, 100000 kPa, Falling or rolling sphere viscometry, w1 = 0.1005
  viscosity: 1.577 ± 0.052 mPa·s
293.15 K, 100000 kPa, Falling or rolling sphere viscometry, w1 = 0.202
  viscosity: 2.706 ± 0.089 mPa·s
293.15 K, 100000 kPa, Falling or rolling sphere viscometry, w1 = 0.3005
  viscosity: 4.861 ± 0.16 mPa·s
293.15 K, 100000 kPa, w1 = 0.1005
  mass density: 1032.5 ± 0.7 kg/m3
293.15 K, 100000 kPa, w1 = 0.202
  mass density: 1027.7 ± 0.7 kg/m3
293.15 K, 100000 kPa, w1 = 0.3005
  mass density: 1024.3 ± 0.7 kg/m3
293.15 K, 100000 kPa, w1 = 0.3995
  mass density: 1020.4 ± 0.7 kg/m3
293.15 K, 110000 kPa, w1 = 0.1005
  mass density: 1035.9 ± 0.7 kg/m3
293.15 K, 110000 kPa, w1 = 0.202
  mass density: 1030.8 ± 0.7 kg/m3
293.15 K, 110000 kPa, w1 = 0.3005
  mass density: 1027.2 ± 0.7 kg/m3
293.15 K, 110000 kPa, w1 = 0.3995
  mass density: 1023.2 ± 0.7 kg/m3
293.15 K, 120000 kPa, w1 = 0.1005
  mass density: 1039.3 ± 0.7 kg/m3
293.15 K, 120000 kPa, w1 = 0.202
  mass density: 1033.9 ± 0.7 kg/m3
293.15 K, 120000 kPa, w1 = 0.3005
  mass density: 1030.2 ± 0.7 kg/m3
293.15 K, 120000 kPa, w1 = 0.3995
  mass density: 1026.3 ± 0.7 kg/m3
293.15 K, 130000 kPa, w1 = 0.1005
  mass density: 1042.7 ± 0.7 kg/m3
293.15 K, 130000 kPa, w1 = 0.202
  mass density: 1037.2 ± 0.7 kg/m3
293.15 K, 130000 kPa, w1 = 0.3005
  mass density: 1033.3 ± 0.7 kg/m3
293.15 K, 130000 kPa, w1 = 0.3995
  mass density: 1029.2 ± 0.7 kg/m3
293.15 K, 140000 kPa, w1 = 0.1005
  mass density: 1045.7 ± 0.8 kg/m3
293.15 K, 140000 kPa, w1 = 0.202
  mass density: 1040.1 ± 0.7 kg/m3
293.15 K, 140000 kPa, w1 = 0.3005
  mass density: 1036 ± 0.7 kg/m3
293.15 K, 140000 kPa, w1 = 0.3995
  mass density: 1031.9 ± 0.7 kg/m3
313.15 K, 100 kPa, Concentric cylinders viscometry, w1 = 0.1
  viscosity: 0.947 ± 0.02 mPa·s
313.15 K, 100 kPa, Concentric cylinders viscometry, w1 = 0.2
  viscosity: 1.408 ± 0.029 mPa·s
313.15 K, 100 kPa, Concentric cylinders viscometry, w1 = 0.3
  viscosity: 2.102 ± 0.043 mPa·s
313.15 K, 100 kPa, Concentric cylinders viscometry, w1 = 0.4
  viscosity: 3.068 ± 0.063 mPa·s
313.15 K, 100 kPa, Falling or rolling sphere viscometry, w1 = 0.1005
  viscosity: 0.9401 ± 0.031 mPa·s
313.15 K, 100 kPa, Falling or rolling sphere viscometry, w1 = 0.202
  viscosity: 1.368 ± 0.045 mPa·s
313.15 K, 100 kPa, Falling or rolling sphere viscometry, w1 = 0.3005
  viscosity: 2.042 ± 0.067 mPa·s
313.15 K, 100 kPa, Falling or rolling sphere viscometry, w1 = 0.3995
  viscosity: 2.99 ± 0.098 mPa·s
313.15 K, 100 kPa, w1 = 0.1005
  mass density: 987.4 ± 0.7 kg/m3
313.15 K, 100 kPa, w1 = 0.202
  mass density: 983.2 ± 0.7 kg/m3
313.15 K, 100 kPa, w1 = 0.3005
  mass density: 978.8 ± 0.7 kg/m3
313.15 K, 100 kPa, w1 = 0.3995
  mass density: 972.7 ± 0.7 kg/m3
313.15 K, 500 kPa, w1 = 0.1005
  mass density: 987.6 ± 0.7 kg/m3
313.15 K, 500 kPa, w1 = 0.202
  mass density: 983.4 ± 0.7 kg/m3
313.15 K, 500 kPa, w1 = 0.3005
  mass density: 979 ± 0.7 kg/m3
313.15 K, 500 kPa, w1 = 0.3995
  mass density: 972.9 ± 0.7 kg/m3
313.15 K, 1000 kPa, w1 = 0.1005
  mass density: 987.8 ± 0.7 kg/m3
313.15 K, 1000 kPa, w1 = 0.202
  mass density: 983.6 ± 0.7 kg/m3
313.15 K, 1000 kPa, w1 = 0.3005
  mass density: 979.2 ± 0.7 kg/m3
313.15 K, 1000 kPa, w1 = 0.3995
  mass density: 973.1 ± 0.7 kg/m3
313.15 K, 2000 kPa, w1 = 0.1005
  mass density: 988.3 ± 0.7 kg/m3
313.15 K, 2000 kPa, w1 = 0.202
  mass density: 984 ± 0.7 kg/m3
313.15 K, 2000 kPa, w1 = 0.3005
  mass density: 979.6 ± 0.7 kg/m3
313.15 K, 2000 kPa, w1 = 0.3995
  mass density: 973.5 ± 0.7 kg/m3
313.15 K, 5000 kPa, Falling or rolling sphere viscometry, w1 = 0.1005
  viscosity: 0.9415 ± 0.031 mPa·s
313.15 K, 5000 kPa, Falling or rolling sphere viscometry, w1 = 0.202
  viscosity: 1.374 ± 0.045 mPa·s
313.15 K, 5000 kPa, Falling or rolling sphere viscometry, w1 = 0.3005
  viscosity: 2.063 ± 0.068 mPa·s
313.15 K, 5000 kPa, Falling or rolling sphere viscometry, w1 = 0.3995
  viscosity: 3.031 ± 0.1 mPa·s
313.15 K, 5000 kPa, w1 = 0.1005
  mass density: 989.5 ± 0.7 kg/m3
313.15 K, 5000 kPa, w1 = 0.202
  mass density: 985.2 ± 0.7 kg/m3
313.15 K, 5000 kPa, w1 = 0.3005
  mass density: 980.8 ± 0.7 kg/m3
313.15 K, 5000 kPa, w1 = 0.3995
  mass density: 974.7 ± 0.7 kg/m3
313.15 K, 10000 kPa, Falling or rolling sphere viscometry, w1 = 0.1005
  viscosity: 0.9437 ± 0.031 mPa·s
313.15 K, 10000 kPa, Falling or rolling sphere viscometry, w1 = 0.202
  viscosity: 1.382 ± 0.045 mPa·s
313.15 K, 10000 kPa, Falling or rolling sphere viscometry, w1 = 0.3005
  viscosity: 2.083 ± 0.068 mPa·s
313.15 K, 10000 kPa, Falling or rolling sphere viscometry, w1 = 0.3995
  viscosity: 3.075 ± 0.1 mPa·s
313.15 K, 10000 kPa, w1 = 0.1005
  mass density: 991.5 ± 0.7 kg/m3
313.15 K, 10000 kPa, w1 = 0.202
  mass density: 987.2 ± 0.7 kg/m3
313.15 K, 10000 kPa, w1 = 0.3005
  mass density: 982.7 ± 0.7 kg/m3
313.15 K, 10000 kPa, w1 = 0.3995
  mass density: 976.7 ± 0.7 kg/m3
313.15 K, 15000 kPa, Falling or rolling sphere viscometry, w1 = 0.1005
  viscosity: 0.9453 ± 0.031 mPa·s
313.15 K, 15000 kPa, Falling or rolling sphere viscometry, w1 = 0.202
  viscosity: 1.392 ± 0.046 mPa·s
313.15 K, 15000 kPa, Falling or rolling sphere viscometry, w1 = 0.3005
  viscosity: 2.103 ± 0.069 mPa·s
313.15 K, 15000 kPa, Falling or rolling sphere viscometry, w1 = 0.3995
  viscosity: 3.121 ± 0.1 mPa·s
313.15 K, 15000 kPa, w1 = 0.1005
  mass density: 993.4 ± 0.7 kg/m3
313.15 K, 15000 kPa, w1 = 0.202
  mass density: 989.1 ± 0.7 kg/m3
313.15 K, 15000 kPa, w1 = 0.3005
  mass density: 984.6 ± 0.7 kg/m3
313.15 K, 15000 kPa, w1 = 0.3995
  mass density: 978.6 ± 0.7 kg/m3
313.15 K, 20000 kPa, Falling or rolling sphere viscometry, w1 = 0.1005
  viscosity: 0.9476 ± 0.031 mPa·s
313.15 K, 20000 kPa, Falling or rolling sphere viscometry, w1 = 0.202
  viscosity: 1.395 ± 0.046 mPa·s
313.15 K, 20000 kPa, Falling or rolling sphere viscometry, w1 = 0.3005
  viscosity: 2.121 ± 0.07 mPa·s
313.15 K, 20000 kPa, Falling or rolling sphere viscometry, w1 = 0.3995
  viscosity: 3.164 ± 0.1 mPa·s
313.15 K, 20000 kPa, w1 = 0.1005
  mass density: 995.4 ± 0.7 kg/m3
313.15 K, 20000 kPa, w1 = 0.202
  mass density: 990.9 ± 0.7 kg/m3
313.15 K, 20000 kPa, w1 = 0.3005
  mass density: 986.5 ± 0.7 kg/m3
313.15 K, 20000 kPa, w1 = 0.3995
  mass density: 980.6 ± 0.7 kg/m3
313.15 K, 25000 kPa, Falling or rolling sphere viscometry, w1 = 0.1005
  viscosity: 0.9506 ± 0.031 mPa·s
313.15 K, 25000 kPa, Falling or rolling sphere viscometry, w1 = 0.202
  viscosity: 1.4 ± 0.046 mPa·s
313.15 K, 25000 kPa, Falling or rolling sphere viscometry, w1 = 0.3005
  viscosity: 2.142 ± 0.07 mPa·s
313.15 K, 25000 kPa, Falling or rolling sphere viscometry, w1 = 0.3995
  viscosity: 3.209 ± 0.11 mPa·s
313.15 K, 30000 kPa, Falling or rolling sphere viscometry, w1 = 0.1005
  viscosity: 0.9525 ± 0.031 mPa·s
